Experimental data reported in patent US8329681B2, “Methods and compositions for the efficient delivery of therapeutic agents to cells and animals” (University of Massachusetts, priority 2005, dated 2012).

Assays:
FL83B cells [1] = experiment: Transfection of pSV-β-gal plasmid, β-galactosidase reporter activity; assay type: cell-based, rat
Procedure: (§1) Cationic lipids and the co-lipids in chloroform were dried under a stream of N2 gas and vacuum-desiccated for a minimum of 6 h to remove residual organic solvent. The dried lipid film was hydrated in sterile deionized water at cationic lipid concentration of 1 mM for a minimum of 12 h. Liposomes were vortexed to remove any adhering lipid film and probe sonicated until a clear translucent solution is formed. The pDNA solution was added to the liposomes, mixed properly by pipeting and shaken on a rotary shaker (15-30 mins.) before use.
(§2) Cells were seeded at a density of 20,000 (for HeLa cells), 16,000 (for A-549 cells), 8,000 (for FL83B cells) per well in a 96-well plate 18-24 h before transfection. An amount of 0.30 μg of pDNA was complexed with varying amounts of lipids (to give +/− ratios of 0.3:1, 1:1, 3:1 and 9:1) in plain OPTIMEM (total volume made up to 100 μl) and then shaken on a rotary shaker at room temperature for 20-30 minutes. The complexes were then added to the cells. After 5 h of incubation, 200 μl of complete medium containing 10% FBS in DMEM for HeLa and 10% FBS in F-12K for FL83B and A549 was added to the cells. The medium was changed after 24 h and the reporter gene activity was estimated 48 h after transfection. Cells were washed with PBS (100 μl) and lysed in […] lysis buffer (5× reporter lysis buffer diluted to 1×, working concentration). The β-galactosidase activity per well was estimated by adding 50 μl of 2× substrate solution (1.33 mg/ml of ONPG, 0.2 M sodium phosphate, pH 7.15 and 2 mM magnesium chloride) to the lysate in a 96-well plate. Absorbance of the product ortho-nitrophenol was measured at 420 nm. The absorbance values reported are the average values from two replicate experiments performed in the same plate on the same day. Each transfection experiment was performed three times on three different days to control for variations in transfection efficiency.
(§3) Briefly, the efficacy of various lipid formulations were tested in three cell lines A-549, FL83B and HeLa cells and the transfection efficiencies of the cationic liposomal formulations were compared with a commercially available transfection reagent (e.g., Lipofectamine 2000).

FL83B cells [2] = experiment: Cell Titer 96 AQueous One Solution (MTS) cytotoxicity assay; assay type: cell-based, rat; details: liposomal formulation alone or in combination with DOPE and DOPC as co-lipid
Procedure: (§4) Alternatively, the cytotoxicity of the lipids was measured using the Cell Titer 96® AQueous One Solution Cell Proliferation Assay. The Cell Titer 96® AQueous One Solution Reagent contains a tetrazolium compound [3-(4,5-dimethylthiazol-2-yl)-5-(3-carboxymethoxyphenyl)-2(4-sulfophenyl)-2H-tetrazolium, inner salt; MTS^17] and an electron coupling reagent (phenazine ethosulfate; PES). The cytotoxicity assay was performed in 96 well plates by maintaining the ratio of number of cells to amount of cationic lipid constant as in transfection experiments. MTS was added 24 hours after transfection. Cell Titer 96® AQueous One Solution Reagent (20 ul) was pipetted into each well of the 96-well assay plate containing the samples in 100 μl of culture medium. In case of HeLa cells the plates were incubated for 2 hours, whereas for FL83B cells, plates were incubated for 4 hours at 37° C. in a humidified, 5% CO2 atmosphere. Absorbance was then recorded at 490 nm.
(§5) In a second experiment, FL83B and HeLa cells were plated on 96 well plate 18 hours prior to transfection. Then, liposome was added to each well and incubated for 24 hours. Thereafter, Cell Titer 96® AQueous One Solution Reagent was added and incubated for 4 hours. The MTS tetrazolium compound (Owen's reagent) is bioreduced by viable cells into a colored formazan product that is soluble in tissue culture […]. The absorbance of the formazan was measured at 490 nm with a 96 well plate reader.

CDK9 expression = experiment: In vivo delivery of CDK9 siRNA with liposome by tail vein injection, CDK9 expression in spleen; set-up: species or system BALB/c mice; details: Cy3-labeled CDk9 siRNA (25 μg) and liposome (125 μg), repeated 4 and 8 h later, within the initial 24 h after treatment
Procedure: Total RNA was extracted from tissues or cultured cells using Trizol (Invitrogen, Carlsbad, Calif.), and real-time RT-PCR for CDK9 and GAPDH mRNA quantification was carried out using 200 ng of total RNA and the QuantiTect SYBR Green RT-PCR Kit (Qiagen, Valencia, Calif.) according to the manufacturer's instructions. The ratio of CDK9 and GAPDH mRNA was calculated and expressed as a group average relative to the control group. The specific probe for detection of CDK9 mRNA levels was designed to the following regions of the CDK9 mRNA ORF, the forward primer 5′ TCGGACCAA AGCCTCACCGTATAA 3′, the reverse primer 5′ […] TTG 3′
Male BALB/c mice, 6-8 weeks of age and weighting 20-22 g, were purchased form the Jackson Laboratory (Bar Harbor, Me.). Synthetic siRNA were delivered in vivo using following method. For each mice 25 μg of siRNA in 100 μl of HEPES Buffered Saline (20 mM HEPES, 150 mM NaCl, pH 7.4) was transferred into a sterile tube. In a separate sterile tube 125 μg of liposome was mixed with 200 μl HEPES Buffered Saline. The siRNA solution was transferred to the tube containing liposome solution and then incubated at room temperature for 20 minutes. 200 μl of the complexes was injected via the tail vein, using a 1-ml syringe and 27-gauge needle. The injection was repeated 4 and 8 h later. Control mice were injected with an equal volume of liposome. At 24 h after the last injection, the mice were sacrificed and tissues were harvested for further analysis. CDK9 expression level was normalized with GAPDH and then compared to those obtained from control animals and shown as percent expression. The data represent the mean value +/− SD of three to five mice in each group.
Briefly, the ability of the new synthesized liposome to deliver siRNA in mice was investigated. BALB/c mice were administrated with complexes of Cy3-labeled CDk9 siRNA (25 μg) and liposome (125 μg) via normal pressure tail vein injection. The injection was repeated 4 and 8 h later. Control mice were administrated with an equal amount of liposome. […]

HeLa cells [3] = experiment: Transfection of pSV-β-gal plasmid, β-galactosidase reporter activity; assay type: cell-based, human
Procedure: as §1, §2, §3

A549 cells = experiment: as above; assay type: cell-based, human
Procedure: as §1, §2, §3

[4] = system: A-549, FL83B and HeLa cells; experiment: Transfection of pSV-β-gal plasmid, overall statement without cell line; assay type: cell-based; details: alone without any co-lipids
Procedure: as §2, with “efficiency. […]” for “efficiency.”

HeLa cells [5] = experiment: Cell Titer 96 AQueous One Solution (MTS) cytotoxicity assay; assay type: cell-based, human; details: liposomal formulation alone or in combination with DOPE and DOPC as co-lipid
Procedure: as §4, §5

FL83B cells [6] = experiment: Cell Titer-Blue cell viability assay, cytotoxicity of liposomes; assay type: cell-based, rat; details: 50 μg/ml, 24 h incubation
Procedure: The Cell Titer-Blue Cell Viability Assay Kit (Promega, Madison, Wis.) was applied to detect and measure cytotoxicity in FL83B cells according to the manufacturer's instructions. Briefly, […] cells were plated on 96-well plate in F-12K medium (ATCC, Manassas, Va.) with 10% fetal bovine serum at 37° C. in 5% CO2. At 24 h., liposomes were added to each well at various concentrations and incubated for 24 h at 37° C. in 5% CO2. Afterwards, the Cell Titer-Blue Reagent was added to each well at 20 μl/well and incubated for 4 h at 37° C. in 5% CO2. The fluorescent signal was recorded by a fluorescent reader (560/590 nm).
Briefly, in a first experiment, the ability of eukaryotic cells to survive exposure to various lipids at doses of 20 and 50 μg/ml was examined. Fl83B cells were plated on 96-well plate for 24 hours. Typically liposomes were added to well and incubated at 37° C. for 24 hours. Thereafter, Cell Titer-Blue Reagent (resazurin) was added and incubated for 4 hours. Resazurin was used as indicator to measure the metabolic capacity of cells. Viable cells retain the ability to reduce resazurin into resorufin, which is highly fluorescent. […] The fluorescence in each well was measured by fluorescent reader.
All cytotoxicity measurements were performed after 24 h of incubation with new synthesizes liposome without medium changes. […]

[7] = alone and in combination with DOPE and DOPC, lipid:DNA charge ratio 9.0:1 to 0.3:1
[8] = in combination with DOPE and DOPC
[9] = alone or in combination with DOPE and DOPC, lipid:DNA charge ratio 9.0:1 to 0.3:1.0
[10] = lipid:DNA charge ratio 9.0:1 to 0.3:1.0

CCCCCCCCCCCCCC(=O)OC(COC(=O)CCC(=O)O[C@H]1CC[C@@]2(C)C(=CC[C@H]3[C@@H]4CC[C@H]([C@H](C)CCCC(C)C)[C@@]4(C)CC[C@@H]32)C1)C[N+](C)(C)C.[I-] (some centres unmarked) [Lipid 7, N,N,N-Trimethyl-N-[2-(tetradecanoyloxy),3-succinyloxy(4-cholesteryloxy)-propyl]ammonium iodide]
transfection efficiency compared with Lipofectamine 2000 (FL83B cells [1]; [7]): comparable | cytotoxicity as compared to a control (FL83B cells [2]): non-toxic | CDK9 expression level in the spleen decreased by (CDK9 expression): 40% | transfection efficiency compared with Lipofectamine 2000 (HeLa cells [3]; [7]): more than one fold less | transfection efficiency compared with Lipofectamine 2000 (A549 cells; [7]): comparable | transfection efficiency of lipid alone compared with lipid in combination with DOPE and DOPC [4]: about as efficient | cytotoxicity as compared to a control (HeLa cells [5]): non-toxic

CCCCCCCCCCCCCC(=O)O[C@H](COC(=O)CCC(=O)O[C@H]1CC[C@@]2(C)C(=CC[C@H]3[C@@H]4CC[C@H]([C@H](C)CCCC(C)C)[C@@]4(C)CC[C@@H]32)C1)C[N+](C)(CCO)CCO.[I-] [Lipid 9]
transfection efficiency, fold less than Lipofectamine 2000 (FL83B cells [1]; [8]): more than 1 fold | cell death (FL83B cells [6]): 12% | CDK9 expression level in the spleen decreased by (CDK9 expression): 30% | transfection efficiency, fold less than Lipofectamine 2000 (HeLa cells [3]; [8]): more than 1 fold | transfection efficiency compared with Lipofectamine 2000 (A549 cells; [8]): comparable

CC(C)CCC[C@@H](C)[C@H]1CC[C@H]2[C@@H]3CC=C4CC(OC(=O)CCC(=O)OCC(O)C[N+](C)(C)C)CC[C@]4(C)[C@H]3CC[C@]12C (some centres unmarked) [Lipid 12, N,N,N-Trimethyl-N-[2-hydroxy, 3-succinyloxy(4-cholesteryloxy)-propyl]ammonium iodide]
transfection efficiency compared with Lipofectamine 2000 (FL83B cells [1]; lipid:DNA charge ratio 0.3:1): comparable | transfection efficiency compared with Lipofectamine 2000 (HeLa cells [3]; lipid:DNA charge ratio 0.3:1): comparable | transfection efficiency compared with Lipofectamine 2000 (A549 cells; lipid:DNA charge ratio 0.3:1): comparable

CC[N+](C)(C)CCNC(=O)OC1CC[C@@]2(C)C(=CC[C@H]3[C@@H]4CC[C@H]([C@H](C)CCCC(C)C)[C@@]4(C)CC[C@@H]32)C1 (some centres unmarked) [Lipid 14]
transfection efficiency compared with Lipofectamine 2000 (FL83B cells [1]; alone, charge ratio 3:1): comparable | transfection efficiency compared with Lipofectamine 2000 (FL83B cells [1]; in combination with DOPC): less efficient | transfection efficiency compared with Lipofectamine 2000 (FL83B cells [1]; in combination with DOPE, charge ratio 9:1): comparable | transfection efficiency compared with Lipofectamine 2000 (HeLa cells [3]; in combination with DOPC, lipid:DNA charge ratio 0.3:1): almost comparable | transfection efficiency, fold less than Lipofectamine 2000 (HeLa cells [3]; in combination with DOPE): 2.5 fold | transfection efficiency, fold less than Lipofectamine 2000 (HeLa cells [3]; lipid alone, charge ratio 9:1 to 3:1): more than 1.5 fold | transfection efficiency, fold less than Lipofectamine 2000 (A549 cells; alone or in combination with DOPE and DOPC, lipid:DNA charge ratios 1:1 and 0.3:1): about 1.5 fold

CC(C)CCC[C@@H](C)[C@H]1CC[C@H]2[C@@H]3CC=C4C[C@@H](OC(=O)NCC[N+](C)(C)CCCCCCCCCCCO)CC[C@]4(C)[C@H]3CC[C@]12C.[Br-] [Lipid 16]
transfection efficiency compared with Lipofectamine 2000 (FL83B cells [1]; alone or in combination with co-lipids): about two fold less | cytotoxicity as compared to a control (FL83B cells [2]): non-toxic | transfection efficiency, fold less active than Lipofectamine 2000 (HeLa cells [3]; [9]): about 1.5 fold | transfection efficiency of lipid alone compared with combination with co-lipids DOPE and DOPC (HeLa cells [3]; [10]): almost the same | transfection efficiency compared with Lipofectamine 2000 (A549 cells; [9]): about a little more than one fold | transfection efficiency of lipid alone compared with combination with co-lipids DOPE and DOPC (A549 cells; [10]): almost the same | cytotoxicity as compared to a control (HeLa cells [5]): non-toxic
